In article PMC7156458, “Synthetic biology based construction of biological activity-related library of fungal decalin-containing diterpenoid pyrones” (Nature Communications, 2020):

Columns and labels:
Assay in all cases: cells
Parameters in all cases: species or system JFCR39 human cancer cell lines; JFCR39 panel growth inhibition, sulforhodamine B total protein after 48 h
[1] = system: OVCAR-4; conditions: for GI50: Homo sapiens, OVCAR-4, 48 h
Procedure: (§1) Supplementary Note 24. Antiproliferative effects across the panel of JFCR39 cancer cell lines A panel of 39 human cancer cell lines, termed JFCR39, were previously described13-16. Cells were grown in RPMI-1640 (FUJIFILM Wako Pure Chemical Corporation, Tokyo, Japan) supplemented with 1 µg mL-1 kanamycin and 5% (v/v) fetal bovine serum (Nichirei Biosciences Inc, Tokyo, Japan) and incubated at 37°C in a humidified atmosphere supplemented with 5% CO2. Drug efficacy was assessed as changes in total cellular protein after 48 hours of drug treatment using a sulforhodamine B assay. Assays were done in duplicate and the GI50 was calculated as described previously13,16. The antitumor profile across the JFCR39 panel, or fingerprints were then compared to reference database containing ~2000 compounds by COMPARE algorithm16,17. Initially, we evaluated new DDP analogues for their antiproliferative activities across the panel of 39 human cancer cell lines, JFCR39[50],[51].

[2] = system: LOX-IMVI; conditions: 48 h; for GI50: Homo sapiens, LOX IMVI; for Log GI50: inhibitor, Log GI50, 48 h
Procedure: as §1

[3] = system: HCT-15; conditions: for GI50: Homo sapiens, HCT-15, 48 h; for Log GI50: 48 h, inhibitor, Log GI50, 48 h
Procedure: as §1

[4] = system: U251; conditions: for GI50: Homo sapiens, U-251, 48 h
Procedure: as §1

[5] = system: MKN-B; conditions: 48 h; for Log GI50: inhibitor, Log GI50, 48 h
Procedure: as §1

[6] = system: MDA-MB-231; conditions: for GI50: Homo sapiens, MDA-MB-231, 48 h
Procedure: as §1

[7] = system: RXF-631L; conditions: 48 h; for GI50: RXF-631L
Procedure: as §1

[8] = system: SF-268; conditions: for GI50: Homo sapiens, SF-268, 48 h
Procedure: as §1

[9] = system: BSY-1; conditions: for GI50: BSY-1, 48 h; for Log GI50: 48 h, inhibitor, Log GI50, 48 h
Procedure: as §1

[10] = system: SK-OV-3; conditions: for GI50: Homo sapiens, SK-OV-3, 48 h
Procedure: as §1

[11] = system: NCI-H23; conditions: for GI50: Homo sapiens, NCI-H23, 48 h
Procedure: as §1

[12] = system: St-4; conditions: for GI50: Homo sapiens, St-4, 48 h
Procedure: as §1

[13] = system: HBC-5; conditions: for GI50: HBC5, 48 h
Procedure: as §1

[14] = system: HT-29; conditions: for GI50: Homo sapiens, HT-29, 48 h
Procedure: as §1

[15] = system: SNB-78; conditions: for GI50: Homo sapiens, SNB-78, 48 h
Procedure: as §1

[16] = system: MKN74; conditions: for GI50: Homo sapiens, MKN-74, 48 h; for Log GI50: 48 h, inhibitor, Log GI50, 48 h
Procedure: as §1

[17] = system: HCC2998; conditions: for GI50: Homo sapiens, HCC 2998, 48 h
Procedure: as §1

[18] = system: MKN45; conditions: for GI50: Homo sapiens, MKN-45, 48 h
Procedure: as §1

[19] = system: SNB-75; conditions: for GI50: Homo sapiens, SNB-75, 48 h
Procedure: as §1

[20] = system: OVCAR-5; conditions: for GI50: Homo sapiens, OVCAR-5, 48 h
Procedure: as §1

[21] = system: HBC-4; conditions: for GI50: HBC4, 48 h
Procedure: as §1

[22] = 48 h, inhibitor, Log GI50, 48 h

## C=C1CCC2C(C)(CC(=O)C=C(C)C)C(O)CCC2(C)C1Cc1c(O)c(C)c(C)oc1=O (stereo not shown) [Compound 7]
[1]
  GI50: 35.8 µM
[2]
  GI50: 12.2 µM
[3]
  GI50: 55.6 µM
[4]
  GI50: 95.5 µM
[5]
  GI50: 37.7 µM
[6]
  GI50: 58.3 µM
[7]
  GI50: 65.9 µM
[8]
  GI50: 77.8 µM
[9]
  GI50: 37 µM
[10]
  GI50: 60.8 µM
[11]
  GI50: 13.2 µM
[12]
  GI50: 69.2 µM
[13]
  GI50: 32.5 µM

## C=C1CCC2C(C)(CCC=C(C)C)C(O)CCC2(C)C1Cc1c(OC)oc(C)c(C)c1=O (stereo not shown) [Compound 11]
[1]
  GI50: 9.06 µM
[14]
  GI50: 13.6 µM
[3]
  GI50: 1.22 µM
[4]
  GI50: 22.8 µM
[15]
  GI50: 21.9 µM
[16]
  GI50: 4.76 µM
[17]
  GI50: 36.7 µM
[5]
  GI50: 3.7 µM
[18]
  GI50: 18.6 µM
[6]
  GI50: 22.6 µM
[7]
  GI50: 19.3 µM
[19]
  GI50: 27.8 µM
[8]
  GI50: 14 µM
[20]
  GI50: 42.4 µM
[9]
  GI50: 11.5 µM
[21]
  GI50: 35.8 µM
[12]
  GI50: 24.9 µM
[13]
  GI50: 13.9 µM

## C=C1CC[C@@H]2[C@](C)(CC[C@H]3O[C@H](C=C(C)C)C[C@@]23C)[C@@H]1Cc1c(OC)oc(C)c(C)c1=O [Compound 22, O-methylated higginsianin A]
[1]
  GI50: 2.77 µM
[2]
  GI50: 1.17 µM
[14]
  GI50: 7.66 µM
[4]
  GI50: 11.6 µM
[15]
  GI50: 9.75 µM
[16]
  GI50: 3.33 µM
[17]
  GI50: 8.85 µM
[5]
  GI50: 0.54 µM
[18]
  GI50: 10.4 µM
[7]
  GI50: 8.05 µM
[19]
  GI50: 10 µM
[8]
  GI50: 8.18 µM
[20]
  GI50: 13.4 µM
[10]
  GI50: 10.6 µM
[11]
  GI50: 0.729 µM
[21]
  GI50: 11.9 µM
[12]
  GI50: 11 µM
[13]
  GI50: 7.06 µM

## C=C1CCC2C(C)(CC(=O)C=C(C)C)C(O)CCC2(C)C1Cc1c(OC)oc(CO)c(C)c1=O (stereo not shown) [Compound 19]
[1]
  GI50: 52.6 µM
[2]
  GI50: 13.6 µM
[14]
  GI50: 46 µM
[3]
  GI50: 52.8 µM
[4]
  GI50: 69.7 µM
[15]
  GI50: 36.2 µM
[16]
  GI50: 31 µM
[5]
  GI50: 15.2 µM
[18]
  GI50: 77.1 µM
[19]
  GI50: 53.8 µM
[8]
  GI50: 69.5 µM
[9]
  GI50: 33.3 µM
[10]
  GI50: 83.2 µM
[11]
  GI50: 11.9 µM
[12]
  GI50: 75.3 µM
[13]
  GI50: 31.6 µM

## C=C1CCC2C(C)(CCC=C(C)C)C(O)CCC2(C)C1Cc1c(OC)oc(CO)c(C)c1=O (stereo not shown) [Compound 16]
[1]; [22]
  Log GI50: -4.966 M
[2]
  Log GI50: -5.224 M
[14]; [22]
  Log GI50: -4.904 M
[3]
  Log GI50: -5.220 M
[4]; [22]
  Log GI50: -4.880 M
[15]; [22]
  Log GI50: -4.939 M
[16]
  Log GI50: -4.995 M
[17]; [22]
  Log GI50: -4.871 M
[5]
  Log GI50: -5.237 M
[18]; [22]
  Log GI50: -4.853 M
[6]; [22]
  Log GI50: -4.882 M
[7]; inhibitor, Log GI50, 48 h
  Log GI50: -4.839 M
[19]; [22]
  Log GI50: -4.827 M
[8]; [22]
  Log GI50: -4.944 M
[20]; [22]
  Log GI50: -4.859 M
[9]
  Log GI50: -4.961 M
[10]; [22]
  Log GI50: -4.993 M
[11]; [22]
  Log GI50: -5.618 M
[21]; [22]
  Log GI50: -4.804 M
[12]; [22]
  Log GI50: -4.853 M
[13]; [22]
  Log GI50: -4.986 M

## C=C1CCC2C(C)(CCC=C(C)C)C(O)CCC2(C)C1Cc1c(OC)oc(CO)c(C(=O)OC)c1=O (stereo not shown) [Compound 13]
[1]
  GI50: 15.5 µM
[2]
  GI50: 13.7 µM
[14]
  GI50: 17.9 µM
[3]
  GI50: 18.5 µM
[4]
  GI50: 19.9 µM
[15]
  GI50: 17.3 µM
[16]
  GI50: 14.8 µM
[17]
  GI50: 17.7 µM
[5]
  GI50: 15.7 µM
[18]
  GI50: 16.7 µM
[6]
  GI50: 19.6 µM
[7]
  GI50: 16.8 µM
[19]
  GI50: 18.8 µM
[8]
  GI50: 20.2 µM
[20]
  GI50: 17.3 µM
[9]
  GI50: 13.9 µM
[10]
  GI50: 16.3 µM
[11]
  GI50: 10.9 µM
[21]
  GI50: 21.8 µM
[12]
  GI50: 21.9 µM
[13]
  GI50: 15.1 µM

## C=C1CCC2C(C)(CCC=C(C)C)C(O)CCC2(C)C1Cc1c(OC)oc(CO)c(C)c1=O (stereo not shown) [Compound 12]
[1]
  GI50: 9.93 µM
[2]
  Log GI50: -6.218 M
[14]
  GI50: 12.6 µM
[3]
  Log GI50: -5.533 M
[4]
  GI50: 15 µM
[15]
  GI50: 13.3 µM
[16]
  Log GI50: -5.381 M
[17]
  GI50: 15.7 µM
[5]
  Log GI50: -5.948 M
[18]
  GI50: 13.4 µM
[6]
  GI50: 13.5 µM
[7]
  GI50: 16.1 µM
[19]
  GI50: 18.4 µM
[8]
  GI50: 12.3 µM
[20]
  GI50: 19.5 µM
[9]
  Log GI50: -5.304 M
[10]
  GI50: 12.6 µM
[11]
  GI50: 1.95 µM
[21]
  GI50: 13.8 µM
[12]
  GI50: 14.1 µM
[13]
  GI50: 8.73 µM

## C=C1CC[C@@H]2[C@](C)(CC[C@H]3O[C@H](C=C(C)C)C[C@@]23C)[C@@H]1Cc1c(OC)oc(CO)c(C(=O)OC)c1=O [Compound 21]
[1]
  GI50: 15.1 µM
[2]
  GI50: 15.1 µM
[14]
  GI50: 17.4 µM
[3]
  GI50: 17.6 µM
[4]
  GI50: 17.5 µM
[15]
  GI50: 18.7 µM
[16]
  GI50: 19.8 µM
[17]
  GI50: 18.2 µM
[5]
  GI50: 16.8 µM
[18]
  GI50: 16.2 µM
[6]
  GI50: 17.8 µM
[7]
  GI50: 17.3 µM
[19]
  GI50: 17.8 µM
[8]
  GI50: 19.5 µM
[20]
  GI50: 16.6 µM
[9]
  GI50: 14.9 µM
[10]
  GI50: 17.3 µM
[11]
  GI50: 11.1 µM
[21]
  GI50: 16.8 µM
[12]
  GI50: 20 µM
[13]
  GI50: 14.7 µM

## C=C1CC[C@@H]2[C@](C)(CC[C@H]3O[C@H](C=C(C)C)C[C@@]23C)[C@@H]1Cc1c(OC)oc(CO)c(C)c1=O [Compound 20]
[1]
  GI50: 11.9 µM
[2]
  GI50: 10.1 µM
[14]
  GI50: 14.6 µM
[3]
  GI50: 10.1 µM
[4]
  GI50: 13.8 µM
[15]
  GI50: 14 µM
[16]
  GI50: 12.9 µM
[17]
  GI50: 15.9 µM
[5]
  GI50: 1.06 µM
[18]
  GI50: 14.5 µM
[6]
  GI50: 13.1 µM
[7]
  GI50: 17 µM
[19]
  GI50: 16.4 µM
[8]
  GI50: 12.7 µM
[20]
  GI50: 16.4 µM
[9]
  GI50: 12.2 µM
[10]
  GI50: 13.3 µM
[21]
  GI50: 15.6 µM
[12]
  GI50: 14.3 µM
[13]
  GI50: 12.4 µM
